Data published in patent US20070082841A1, “Ocular administration of immunosuppressive agents” (Aciont, Inc., priority 2005, published 2007).

Test: Ocular iontophoretic delivery of MPA in rabbits; amounts in eye tissues by HPLC
Type: in vivo, New Zealand white rabbits
Details: rabbit eye; iontophoresis 3 mA for 20 minutes, 20 μL of 0.6 M MPA in 1% agarose gel, 0.07 cm^2; 15 minutes after delivery
Protocol: Three New Zealand white rabbits were each fitted with ocular iontophoretic device on one eye. Each device contained 20 μL of 0.6 M mycophenolic acid (MPA) in 1% agarose gel. A vacuum was provided between the eyes of the rabbits and the ocular iontophoretic device by withdrawing 0.2 cc from the space therebetween. MPA was iontophoretically delivered from the cathodes of the devices on the conjunctiva/sclera near the limbus and the upper eyelid using constant current control from standard iontophoretic dose controller. The MPA was iontophoretically delivered through a surface area of 0.07 cm^2 at 3 mA for 20 minutes. The anode electrode was attached on the rabbit's ear, opposite the treatment eye. Rabbits were euthanized at 15 minutes following completion of the iontophoretic delivery. Treatment eyes were dissected and the amounts of MPA in the conjunctiva, sclera, retina, and vitreous were determined using HPLC assay.

With `COc1c(C)c2c(c(O)c1C/C=C(\C)CCC(=O)O)C(=O)OC2` [MPA, mycophenolic acid] the “MPA Amount, Conjunctiva” value was 30.45 µg, the “MPA Amount, Retina” value was 1.60 µg and the “MPA Amount, Sclera” value was 20.65 µg. The “MPA Amount, Total (combined total for all of the dissections)” value was 60.75 µg and the “MPA Amount, Vitreous” value was 2.45 µg.
